Assay results published in US8069687B2, “Working media for refrigeration processes” (priority 2005, dated 2011).
Like-named read-outs stand apart in the source and are kept apart here.

Experiments:
[1] = Absorption isotherm: partial pressure of R134a over sorbent material at 20° C.; type: physicochemical
Text: Absorption isotherms result from the amount of a volatile component (here the refrigerant) which, at a predetermined temperature and at pressures which are generally lower than the vapor pressure of the pure refrigerant; dissolves, in an equilibrium state, in a very high-boiling or nonvolatile liquid (here the sorbent material). The pairs of values of concentration of the liquid binary mixture and the pressure of the volatile component over the liquid at a given temperature thereby give an absorption isotherm. Such absorption isotherms of high-boiling or nonvolatile liquid substances can be measured using various dynamic or static experimental methods of which, here, by way of example reference is made to a dynamic, gravimetric method, as was presented by Sadowski G., Mokrushina L. V., Arlt, W., “Finite and infinite dilution activity coefficients in polycarbonate systems”, Fluid Phase Equilibria, 139 (1997) 391-493. In the absorption refrigerating machines considered here, a sorbent material shall absorb the refrigerant after its expansion and vaporization at a low pressure. An advantageous sorbent material, at a given pressure, takes up as much refrigerant as possible, whereupon the volume and the masses of the circulating streams minimize (or lower pressure for the same composition). This leads to the fact that the unit achieves a higher degree of efficiency and can be more advantageous with respect to its dimensions and also the amount of absorber used.
The measurements were carried out at 20° C.

[2] = Text: If, as described in • W. Pennington; How to find accurate vapor pressures of lithium bromide water solutions; Refrig. Eng. 63 (May 1955) 57-61 or • D. A. Boryta, A. J. Maas, C. B. Grant; Vapor pressure-temperature-concentration relationship for system lithium bromide and water (40-70% lithium bromide); J. Chem. Eng. Data 20 (1975) 316-319 or • S. Iyoki, T. Uemura; Vapor pressure of the water-lithium bromide system and water-lithium bromide-zinc bromide-lithium chloride system at high temperatures; Int. […] In the prior art, the use of LiBr as absorbent and water as refrigerant is very widespread.
(§1) If, as described in • W. Pennington; How to find accurate vapor pressures of lithium bromide water solutions; Refrig. Eng. 63 (May 1955) 57-61 or • D. A. Boryta, A. J. Maas, C. B. Grant; Vapor pressure-temperature-concentration relationship for system lithium bromide and water (40-70% lithium bromide); J. Chem. Eng. Data 20 (1975) 316-319 or • S. Iyoki, T. Uemura; Vapor pressure of the water-lithium bromide system and water-lithium bromide-zinc bromide-lithium chloride system at high temperatures; Int.
as §1, with “Ethoxylated cocodiethanolammonium chloride is an ionic liquid which can be obtained under the name TEGO IL K5 from Degussa AG. If,” for “If,”
as §1, with “The ionic liquid diethylpolypropoxymethylammonium chloride can be obtained from Degussa AG under the name TEGO IL P9. If,” for “If,”
as §1

[3] = Crystallization of the sorbent in water; type: physicochemical; settings: T≧20° C.; concentrations greater than 65 mass % ionic liquid in water
[4] = in vivo; cited from earlier work
[5] = Absorption isotherm: partial pressure of 2,2,2-trifluoroethanol over sorbent material at 70° C.; type: physicochemical
Text: Absorption isotherms result from the amount of a volatile component (here the refrigerant) which, at a predetermined temperature and at pressures which are generally lower than the vapor pressure of the pure refrigerant; dissolves, in an equilibrium state, in a very high-boiling or nonvolatile liquid (here the sorbent material). The pairs of values of concentration of the liquid binary mixture and the pressure of the volatile component over the liquid at a given temperature thereby give an absorption isotherm. […] In the absorption refrigerating machines considered here, a sorbent material shall absorb the refrigerant after its expansion and vaporization at a low pressure. An advantageous sorbent material, at a given pressure, takes up as much refrigerant as possible, whereupon the volume and the masses of the circulating streams minimize (or lower pressure for the same composition). This leads to the fact that the unit achieves a higher degree of efficiency and can be more advantageous with respect to its dimensions and also the amount of absorber used.
The measurements were carried out at 70° C.

[6] = as described by N. Bicak; cited from earlier work
[7] = 25° C.; as described by N. Bicak; cited from earlier work
[8] = depending on system temperature; prior art; cited from earlier work
[9] = mass fraction of the sorbent material 0.20
[10] = 20° C., 80 mass % ionic liquid and 20 mass % water
[11] = 20° C., 80 mass % ionic liquid and 20 mass % water, pure water 23.37 mbar
[12] = mass fraction of ionic liquid 0.20
[13] = mass fraction of ionic liquid 0.40
[14] = mass fraction of ionic liquid 0.60
[15] = mass fraction of ionic liquid 0.80
[16] = mass fraction of the sorbent material 0.40
[17] = mass fraction of the sorbent material 0.60
[18] = mass fraction of the sorbent material 0.80
[19] = 40° C., 92 mass % ionic liquid and 8 mass % water

| Compound | Partial pressure of R134a [1, 9] [kPa] | crystallization in water [3] | Partial pressure of 2,2,2-trifluoroethanol [5, 12] [kPa] | Partial pressure of 2,2,2-trifluoroethanol [5, 13] [kPa] | Partial pressure of 2,2,2-trifluoroethanol [5, 14] [kPa] | Partial pressure of 2,2,2-trifluoroethanol [5, 15] [kPa] | other results |
| --- | --- | --- | --- | --- | --- | --- | --- |
| CCn1cc[n+](C)c1 [EMIM EtSO4] | 360 | does not crystallize out | – | – | – | – | water partial pressure [2, 10]: 15 mbar; factor by which the vapor pressure of pure water was lowered [2, 11]: 1.56; LD50 [4]: > 2000 mg/kg |
| 1,3-dimethylimidazolium dimethyl phosphate [MMIM MMPO4] | 439 | – | 39.7 | 10.7 | 3.2 | 0.8 | Partial pressure of R134a [1, 16]: 303 kPa; Partial pressure of R134a [1, 17]: 164 kPa; Partial pressure of R134a [1, 18]: 57 kPa |
| diethylpolypropoxymethylammonium chloride [TEGO IL P9] | – | does not crystallize out | – | – | – | – | water partial pressure ([2]; 30° C., 94 mass % ionic liquid and 6 mass % water): 6 mbar; factor by which the vapor pressure of pure water was decreased ([2]; 30° C., 94 mass % ionic liquid and 6 mass % water, pure water 42.41 mbar): 7.07 |
| CCn1cc[n+](C)c1.[OH-] [EMIM OH] | 345 | – | 5.0 | <0.1 | <0.1 | <0.1 | Partial pressure of R134a [1, 16]: 112 kPa; Partial pressure of R134a [1, 17]: 20 kPa; Partial pressure of R134a [1, 18]: 3 kPa |
| CCCCn1cc[n+](C)c1.[Br-] [BMIM Br, 1-butyl-3-methylimidazolium bromide, reference compound] | – | – | 42.2 | 15.1 | 5.6 | 1.6 | – |
| ethoxylated cocodiethanolammonium chloride [TEGO IL K5] | – | does not crystallize out | – | – | – | – | water partial pressure [2, 10]: 17 mbar; factor by which the vapor pressure of pure water was lowered [2, 11]: 1.38 |
| CCCCn1cc[n+](C)c1.F[B-](F)(F)F [BMIM BF4, 1-butyl-3-methylimidazolium tetrafluoroborate, reference compound] | – | – | 70.2 | 53.0 | 35.9 | 18.0 | – |
| NCCO.O=CO [2-Hydroxyethylammonium formate] | – | – | – | – | – | – | thermal stability, upper temperature [6]: up to 150 °C; vapor pressure [7]: 2.2×10^−2 torr; stability to hydrolysis (Stability to hydrolysis): comparatively poor stability to hydrolysis |
| CCCC[n+]1ccc(C)cc1.[Cl-] [MBP Cl, 1-butyl-4-methylpyridinium chloride] | – | – | 25.2 | 5.0 | 1.3 | 0.3 | – |
| CS(=O)(=O)[O-].C[N+](C)(CCO)CCO [Salt B, bis(2-hydroxyethyl)dimethylammonium methylsulfonate] | – | does not crystallize out | 42.0 | – | – | 1.6 | water partial pressure [2, 10]: 14 mbar; pressure reduction factor compared with the vapor pressure of pure water [2, 19]: 5.3; water partial pressure [2, 19]: approximately 13.9 mbar |
| CCn1cc[n+](C)c1.[Cl-] [EMIM Cl] | 327 | – | 19.3 | 4.0 | 1.0 | 0.2 | Partial pressure of R134a [1, 16]: 135 kPa; Partial pressure of R134a [1, 17]: 37 kPa; Partial pressure of R134a [1, 18]: 7 kPa |
| [Br-].[Li+] [LiBr, lithium bromide] | – | – | – | – | – | – | LiBr concentration above which LiBr crystallizes in water [8]: above 60 mass % |
| CCn1cc[n+](C)c1.CS(=O)(=O)[O-] [EMIM MeSO3] | – | does not crystallize out | 39.7 | 13.5 | 4.6 | 1.2 | water partial pressure ([2]; 30° C., 87 mass % ionic liquid and 13 mass % water): 9 mbar; factor by which the vapor pressure of pure water was lowered ([2]; 30° C., 87 mass % ionic liquid and 13 mass % water, pure water 42.41 mbar): 4.7 |
| C[N+](C)(CCO)CCO.[Cl-] [Salt A, bis(2-hydroxyethyl)dimethylammonium chloride] | – | – | 33.0 | 11.1 | 3.6 | 0.7 | – |
| CC(=O)[O-].CCn1cc[n+](C)c1 [EMIM OAc] | 360 | – | 24.7 | 3.7 | 0.8 | 0.2 | Partial pressure of R134a [1, 16]: 175 kPa; Partial pressure of R134a [1, 17]: 66 kPa; Partial pressure of R134a [1, 18]: 17 kPa |
